Converted amounts (≈) assume the structure as drawn.
Tests used:
[1] = tested on: CA-MRSA strain ST30; assay: MIC and checkerboard (FIC) assay; format: cell-based, Staphylococcus aureus
[2] = tested on: Panton-Valentine leukocidin positive CA-MRSA strain ST30; format: in vivo, Balb/c mice; settings: mouse, in vivo
[3] = tested on: clinical MRSA ST239; assay: Mouse pneumonia model, ST239 (neutropenic mice); format: in vivo, Balb/c mice; settings: mouse, in vivo
[4] = tested on: methicillin sensitive Staphylococcus aureus ATCC25923; assay: Mouse pneumonia model, ATCC25923 (neutropenic mice); format: in vivo, Balb/c mice
[5] = physchem; settings: saline or isotonic
[6] = tested on: MRSA SA-ST239; assay: MIC and checkerboard (FIC) assay
[7] = tested on: CA MRSA W44; assay: MIC and checkerboard (FIC) assay
[8] = tested on: CA MRSA W45; assay: MIC and checkerboard (FIC) assay
[9] = tested on: CA MRSA W46; assay: MIC and checkerboard (FIC) assay
[10] = tested on: CA MRSA W47; assay: MIC and checkerboard (FIC) assay
[11] = tested on: CA MRSA W48; assay: MIC and checkerboard (FIC) assay
[12] = tested on: HA MRSA W231; assay: MIC and checkerboard (FIC) assay
[13] = tested on: HA MRSA W232; assay: MIC and checkerboard (FIC) assay
[14] = tested on: HA MRSA W233; assay: MIC and checkerboard (FIC) assay
[15] = tested on: HA MRSA W238; assay: MIC and checkerboard (FIC) assay
[16] = tested on: HA MRSA W239; assay: MIC and checkerboard (FIC) assay
[17] = tested on: clinical community-associated (CA) and hospital-associated (HA) MRSA strains; assay: MIC and combination tests, panel of clinical strains
[18] = tested on: clinical fusidic acid resistant MRSA strain 82356; assay: MIC and checkerboard (FIC) assay; format: cell-based, Staphylococcus aureus
[19] = tested on: clinical fusidic acid resistant MRSA strain 73621; assay: MIC and checkerboard (FIC) assay; format: cell-based, Staphylococcus aureus
[20] = tested on: clinical fusidic acid resistant MRSA strain 96591; assay: MIC and checkerboard (FIC) assay; format: cell-based, Staphylococcus aureus
[21] = tested on: S. aureus SA-ANT4′ (ANT4), resistant to fusidic acid; assay: MIC and checkerboard (FIC) assay
[22] = tested on: adherence of MRSA strain JE-2 to fibrinogen; assay: Fibrinogen-binding adherence assay (crystal violet); format: cell-based, Staphylococcus aureus; settings: varying concentrations
[23] = tested on: adherence of MRSA strain JE-2 to HaCat keratinocytes; assay: Bacterial adherence to HaCaT keratinocytes; format: cell-based, Staphylococcus aureus; settings: varying concentrations of baicalein
[24] = tested on: internalization of MRSA strain JE-2 by HaCat keratinocytes; assay: Internalization of S. aureus by HaCaT keratinocytes; format: cell-based, Staphylococcus aureus
[25] = tested on: bacterial aggregation of MRSA JE-2; assay: Aggregation assay of MRSA JE-2; format: cell-based, Staphylococcus aureus; settings: JE-2; varying concentrations
[26] = tested on: S. aureus SA-APH2″-AAC6′ (APH2), resistant to gentamicin; assay: MIC and checkerboard (FIC) assay; settings: Staphylococcus aureus
[27] = tested on: S. aureus SA-APH3′ (APH3), resistant to kanamycin; assay: MIC and checkerboard (FIC) assay; settings: Staphylococcus aureus
[28] = tested on: S. aureus SA-RN4220-pUL5054 (RN4220); assay: MIC and checkerboard (FIC) assay; settings: Staphylococcus aureus
[29] = tested on: S. aureus SA-1199B (NorA efflux pump overexpressed); assay: MIC and checkerboard (FIC) assay
[30] = tested on: S. aureus ATCC25923 (methicillin sensitive); assay: MIC and checkerboard (FIC) assay; settings: Staphylococcus aureus
[31] = tested on: panel of laboratory MRSA strains; assay: MIC and combination tests, panel of laboratory strains; settings: tanshinone highest tested concentration 128 μg/ml
[32] = Staphylococcus aureus, MRSA, read-out: MIC alone
[33] = Staphylococcus aureus, read-out: MIC 99.9

In the case of `CN[C@H](CC(C)C)C(=O)N[C@H]1C(=O)N[C@@H](CC(N)=O)C(=O)N[C@H]2C(=O)N[C@H]3C(=O)N[C@H](C(=O)N[C@H](C(=O)O)c4cc(O)cc(O)c4-c4cc3ccc4O)[C@H](O)c3ccc(c(Cl)c3)Oc3cc2cc(c3O[C@@H]2O[C@H](CO)[C@@H](O)[C@H](O)[C@H]2O[C@H]2C[C@](C)(N)[C@H](O)[C@H](C)O2)Oc2ccc(cc2Cl)[C@H]1O` [Vancomycin, vancomycin, reference compound], the FIC ([1]; ST30, ECG+Kur+Van) is reported as 0.5, the MIC combine ([1]; ST30, ECG+Kur+Van) is reported as 0.5 µg/mL and the MIC [1, 32] is reported as 1 µg/mL. For the same molecule, the “expression levels of TNFα, IL-1β, and IL-6 from lung homogenates” value [2] was “significantly lowered”, the “lung tissue profiles (histology) vs control” value [2] was “fewer lesions” and the survival rate [2] was 100%. The “mean bacteria counts (left lung)” value [3] was 4.73±0.26 log CFU, the “lung tissue profiles (histology) vs control” value [4] was “fewer lesions” and the “mean bacteria counts (left lung)” value ([4]; vancomycin 60 mg/kg, ECG 120 mg/kg, kuraridin 120 mg/kg, 48 h, control 8.909±0.101) was 6.064±0.425 log CFU. It also gave a solubility [5] of 20 mg/mL (≈ 13.8 mM), an FIC ([6]; ST239, ECG+Kur+Van) of 0.5 and an MIC combine ([6]; ST239, ECG+Kur+Van) of 0.5 µg/mL. For the same molecule, the MIC [6, 32] was 1 µg/mL, the MIC [7, 32] was 1 µg/mL and the FIC ([7]; W44, ECG+Kur+Van) was 0.5. For the same molecule, the MIC combine ([7]; W44, ECG+Kur+Van) was 0.5 µg/mL, the MIC [8, 32] was 1 µg/mL and the FIC ([8]; W45, ECG+Kur+Van) was 0.5. It also gave an MIC combine ([8]; W45, ECG+Kur+Van) of 0.5 µg/mL, an MIC [9, 32] of 1 µg/mL and an FIC ([9]; W46, ECG+Kur+Van) of 0.5. The MIC combine ([9]; W46, ECG+Kur+Van) was 0.5 µg/mL, the MIC [10, 32] was 1 µg/mL and the FIC ([10]; W47, ECG+Kur+Van) was 0.25. For the same molecule, the MIC combine ([10]; W47, ECG+Kur+Van) was 0.25 µg/mL, the MIC [11, 32] was 1 µg/mL and the FIC ([11]; W48, ECG+Kur+Van) was 0.5. It also gave an MIC combine ([11]; W48, ECG+Kur+Van) of 0.5 µg/mL, an MIC [12, 32] of 1 µg/mL and an MIC combine ([12]; W231, ECG+Kur+Van) of 0.5 µg/mL. It also gave an MIC [13, 32] of 1 µg/mL, an FIC ([13]; W232, ECG+Kur+Van) of 0.5 and an MIC combine ([13]; W232, ECG+Kur+Van) of 0.5 µg/mL. It also gave an MIC [14, 32] of 1 µg/mL, an FIC ([14]; W233, ECG+Kur+Van) of 0.5 and an MIC combine ([14]; W233, ECG+Kur+Van) of 0.5 µg/mL. It also gave an MIC [15, 32] of 1 µg/mL, an FIC ([15]; W238, ECG+Kur+Van) of 0.5 and an MIC combine ([15]; W238, ECG+Kur+Van) of 0.5 µg/mL. It also gave an MIC [16, 32] of 1 µg/mL, an FIC ([16]; W239, ECG+Kur+Van) of 0.5 and an MIC combine ([16]; W239, ECG+Kur+Van) of 0.5 µg/mL. For the same molecule, the MIC ([17]; Staphylococcus aureus, MRSA, read-out: MIC of vancomycin alone) was 1 µg/mL and the “MIC of vancomycin with ECG and kuraridin combined treatment” value ([17]; panel of clinical strains (Table 5)) was 0.5 µg/mL.

In the case of `CC(=O)O[C@H]1C[C@@]2(C)[C@@H](C[C@@H](O)[C@H]3[C@@]4(C)CC[C@@H](O)[C@@H](C)[C@@H]4CC[C@@]32C)/C1=C(\CCC=C(C)C)C(=O)O` [Fusidic acid, fusidic acid, reference compound], the FIC ([18]; 82356, ECG+Kur+Fus) is reported as 0.03, the MIC combine ([18]; 82356, ECG+Kur+Fus) is reported as 1 µg/mL and the MIC ([18]; Staphylococcus aureus, MRSA, 82356 (fusidic acid resistant), read-out: MIC alone) is reported as 32 µg/mL. It also gave an FIC ([19]; 73621, ECG+Kur+Fus) of 0.03, an MIC combine ([19]; 73621, ECG+Kur+Fus) of 1 µg/mL and an MIC ([19]; Staphylococcus aureus, MRSA, 73621 (fusidic acid resistant), read-out: MIC alone) of 32 µg/mL. It also gave an FIC ([20]; 96591, ECG+Kur+Fus) of 0.03, an MIC combine ([20]; 96591, ECG+Kur+Fus) of 1 µg/mL and an MIC ([20]; Staphylococcus aureus, MRSA, 96591 (fusidic acid resistant), read-out: MIC alone) of 32 µg/mL. The FIC ([21]; ANT4, ECG+Kur+Fus) was 0.125, the MIC combine ([21]; ANT4, ECG+Kur+Fus) was 4 µg/mL and the MIC combine ([21]; ANT4, ECG+Kur+Fus, listed as Fus) was 8 µg/mL. It also gave an MIC ([21]; Staphylococcus aureus, read-out: MIC alone) of 64 µg/mL.

In the case of `O=c1cc(-c2ccccc2)oc2cc(O)c(O)c(O)c12` [Baicalein, 5,6,7-trihydroxyflavone], the fibrinogen-binding adherence [22] is reported as “minimal reduction in adherence”, the “average decrease in the adherence of the WT strain to HaCaT cells” value [23] is reported as 3.5 fold and the “decrease in the internalization as compared to the WT strain” value ([24]; 4 μg/ml (baicalein)) is reported as 2.7 fold. For the same molecule, the “internalization lower as compared to the mutant ΔSrtA” value ([24]; 64 μg/ml of baicalein) was 1.9 fold, the “reduction in internalization as compared to the WT strain” value ([24]; 64 μg/ml of baicalein) was 5 fold and the bacterial aggregation [25] was “reduced”. It also gave an MIC90 [26] of 128 µg/mL, an MIC99 ([26]; read-out: MIC 99.9) greater than 512 µg/mL and an MIC90 [27] of 64 µg/mL. It also gave an MIC99 ([27]; read-out: MIC 99.9) greater than 512 µg/mL, an MIC90 ([21]; Staphylococcus aureus) of 128 µg/mL and an MIC99 [21, 33] greater than 512 µg/mL. The MIC90 [28] was 64 µg/mL, the MIC99 ([28]; read-out: MIC 99.9) was greater than 512 µg/mL and the FIC ([29]; 1199B, Baicalein with ECG) was 0.0625. The MIC combine ([29]; 1199B, Baicalein with ECG) was 8 µg/mL, the MIC90 ([29]; Staphylococcus aureus) was 128 µg/mL and the MIC99 [29, 33] was greater than 512 µg/mL. The MIC ([29]; Staphylococcus aureus, read-out: MIC alone, 1199B, Baicalein and ECG section) was 512 µg/mL, the MIC90 ([6]; Staphylococcus aureus, MRSA) was 128 µg/mL and the MIC99 ([6]; Staphylococcus aureus, MRSA, read-out: MIC 99.9) was greater than 512 µg/mL. The MIC90 ([30]; ATCC25923) was 128 µg/mL, the MIC99 ([30]; ATCC25923, read-out: MIC 99.9) was greater than 512 µg/mL and the “activity against the tested MRSA strains when used alone” value [31] was “relatively weak”.
